In ChEMBL document CHEMBL4831513, “Discovery of quinazoline derivatives as a novel class of potent and in vivo efficacious LSD1 inhibitors by drug repurposing” (Eur J Med Chem, 2021):
Calls of active or inactive are those of the source. The calls are words filed in the database; no cut-off is given here.

Assays:
[1] = tested on: MGC-803; test: Induction of apoptosis in human MGC-803 cells assessed as late apoptotic cells at 5 uM measured after 24 hrs by Annexin V-FITC/PI staining based flow cytometry analysis (Rvb= 3.9%); type: functional
[2] = tested on: MGC-803; test: Induction of apoptosis in human MGC-803 cells assessed as live cells at 20 uM measured after 24 hrs by Annexin V-FITC/PI staining based flow cytometry analysis (Rvb= 89%); type: functional
[3] = tested on: MGC-803; test: Induction of apoptosis in human MGC-803 cells assessed as early apoptotic cells at 20 uM measured after 24 hrs by Annexin V-FITC/PI staining based flow cytometry analysis (Rvb= 6.1%); type: functional
[4] = tested on: MGC-803; test: Inhibition of clonogenicity in human MGC-803 cells assessed as reduction in colony formation at 10 uM measured after 10 days by crystal violet staining based analysis relative to control; type: functional; conditions: MGC-803, 240 h, time 10 day
[5] = tested on: MGC-803; test: Induction of apoptosis in human MGC-803 cells assessed as late apoptotic cells at 10 uM measured after 24 hrs by Annexin V-FITC/PI staining based flow cytometry analysis (Rvb= 3.9%); type: functional
[6] = tested on: MGC-803; test: cells; conditions: Homo sapiens, MGC-803, 72 h
Description: Antiproliferative activity against human MGC-803 cells assessed as cell growth inhibition measured after 72 hrs by MTT assay

[7] = tested on: MGC-803; test: Inhibition of epithelial mesenchymal transition process in human MGC-803 cells assessed as increase in E-cadherin expression at 0.1 to 0.5 uM measured after 24 hrs western blot analysis; type: functional, cell-based; conditions: dose 0.1-0.5 µM
[8] = target: T1, MAO-A (Homo sapiens, UniProt P21397); test: Inhibition of N-terminal FLAG-tagged recombinant human MAO-A expressed in baculovirus-infected Sf9 cells at 5 uM using luciferin derivative as substrate pretreated for 15 mins followed by substrate addition and incubated for 60 mins by luciferase assay relative to control; conditions: probe luciferin derivative, time 75 min
T1 sequence (P21397 whole entry): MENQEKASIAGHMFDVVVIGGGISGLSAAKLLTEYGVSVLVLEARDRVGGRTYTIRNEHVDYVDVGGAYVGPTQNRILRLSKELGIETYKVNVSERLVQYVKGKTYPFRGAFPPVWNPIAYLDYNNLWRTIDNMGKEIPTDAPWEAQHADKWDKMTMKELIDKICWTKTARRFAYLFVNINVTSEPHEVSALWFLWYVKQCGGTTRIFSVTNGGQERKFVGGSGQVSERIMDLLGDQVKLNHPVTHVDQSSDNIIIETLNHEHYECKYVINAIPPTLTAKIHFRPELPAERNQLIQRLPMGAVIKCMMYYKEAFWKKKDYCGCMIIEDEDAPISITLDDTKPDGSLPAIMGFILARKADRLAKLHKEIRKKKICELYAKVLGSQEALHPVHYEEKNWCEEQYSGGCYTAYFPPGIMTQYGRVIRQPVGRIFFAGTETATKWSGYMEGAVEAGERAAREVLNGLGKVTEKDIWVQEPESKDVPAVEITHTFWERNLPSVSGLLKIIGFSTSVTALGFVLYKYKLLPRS

[9] = tested on: MGC-803; test: Induction of apoptosis in human MGC-803 cells assessed as necrotic cells at 10 uM measured after 24 hrs by Annexin V-FITC/PI staining based flow cytometry analysis (Rvb= 1%); type: functional
[10] = species: Homo sapiens; test: Selectivity index, ratio of IC50 for inhibition of EGFR (unknown origin) to IC50 for inhibition of recombinant human full length LSD1 transfected in Escherichia coli BL21 (DE)
[11] = tested on: GES1; test: cells; conditions: Homo sapiens, GES1, 72 h
Description: Cytotoxicity against human GES1 cells assessed as cell growth inhibition measured after 72 hrs by MTT assay

[12] = tested on: MGC-803; test: Induction of apoptosis in human MGC-803 cells assessed as viable cells at 5 uM measured after 24 hrs by Annexin V-FITC/PI staining based flow cytometry analysis (Rvb= 89%); type: functional; conditions: read-out: Activity
[13] = target: T2, Lysine-specific histone demethylase 1A (Homo sapiens, UniProt O60341); test: Inhibition of recombinant full length LSD1 (unknown origin) transfected in Escherichia coli BL21 (DE) at 5 uM using H3K4me2 as a substrate by flourescence based analysis relative to control
[14] = tested on: MGC-803; test: Antitumor activity against human MGC-803 cells xenografted in nude mouse assessed as low cell density in tumor tissue at 40 to 80 mg/kg/day, iv measured after 21 days by H and E staining based histopathological analysis; type: functional, organism-based; conditions: dose 40-80 mg/kg/day, time 21.0 day
[15] = tested on: NCI-H460; test: cells; conditions: Homo sapiens, NCI-H460, 72 h
Description: Antiproliferative activity against human NCI-H460 cells assessed as cell growth inhibition measured after 72 hrs by MTT assay

[16] = tested on: MGC-803; test: Antitumor activity against human MGC-803 cells xenografted in nude mouse assessed as pyknosis in tumor tissue at 40 to 80 mg/kg/day, iv measured after 21 days by H and E staining based histopathological analysis; type: functional, organism-based; conditions: dose 40-80 mg/kg/day, time 21.0 day
[17] = Toxicity in nude mouse xenografted with human MGC-803 cells assessed as body weight loss at 40 to 80 mg/kg/day, iv administered for 21 days; type: organism-based; conditions: in vivo, 504 h, dose 40-80 mg/kg/day, time 21 day
[18] = tested on: MCF7; test: cells; conditions: Homo sapiens, MCF7, 72 h
Description: Antiproliferative activity against human MCF7 cells assessed as cell growth inhibition measured after 72 hrs by MTT assay

[19] = tested on: NCI-H1975; test: cells; conditions: Homo sapiens, NCI-H1975, 72 h
Description: Antiproliferative activity against human NCI-H1975 cells assessed as cell growth inhibition measured after 72 hrs by MTT assay

[20] = tested on: MGC-803; test: Induction of apoptosis in human MGC-803 cells assessed as early apoptotic cells at 5 uM measured after 24 hrs by Annexin V-FITC/PI staining based flow cytometry analysis (Rvb= 6.1%); type: functional
[21] = tested on: MGC-803; test: Induction of apoptosis in human MGC-803 cells assessed as live cells at 10 uM measured after 24 hrs by Annexin V-FITC/PI staining based flow cytometry analysis (Rvb= 89%); type: functional
[22] = tested on: MGC-803; test: Antitumor activity against human MGC-803 cells xenografted in nude mouse assessed as reduction in tumor weight at 80 mg/kg/day, iv administered for 21 days relative to control; type: functional; conditions: MGC-803, iv, 504 h, time 21 day
[23] = tested on: MGC-803; test: Induction of apoptosis in human MGC-803 cells assessed as late apoptotic cells at 20 uM measured after 24 hrs by Annexin V-FITC/PI staining based flow cytometry analysis (Rvb= 3.9%); type: functional
[24] = tested on: MGC-803; test: Induction of apoptosis in human MGC-803 cells assessed as early apoptotic cells at 10 uM measured after 24 hrs by Annexin V-FITC/PI staining based flow cytometry analysis (Rvb= 6.1%); type: functional
[25] = target: T2, Lysine-specific histone demethylase 1A
Description: Inhibition of recombinant full length LSD1 (unknown origin) transfected in Escherichia coli BL21 (DE) using H3K4me2 as substrate by flourescence based analysis

[26] = target: Cyclin-dependent kinase 1 (Homo sapiens) (UniProt P06493); test: Inhibition of CDK1 (unknown origin) at 5 uM using 5-FAM-QSPKKG-CONH2 as a substrate incubated for 60 mins in the presence of ATP by caliper analysis relative to control
Chain of Cyclin-dependent kinase 1 (Homo sapiens) (P06493 whole entry, looked up): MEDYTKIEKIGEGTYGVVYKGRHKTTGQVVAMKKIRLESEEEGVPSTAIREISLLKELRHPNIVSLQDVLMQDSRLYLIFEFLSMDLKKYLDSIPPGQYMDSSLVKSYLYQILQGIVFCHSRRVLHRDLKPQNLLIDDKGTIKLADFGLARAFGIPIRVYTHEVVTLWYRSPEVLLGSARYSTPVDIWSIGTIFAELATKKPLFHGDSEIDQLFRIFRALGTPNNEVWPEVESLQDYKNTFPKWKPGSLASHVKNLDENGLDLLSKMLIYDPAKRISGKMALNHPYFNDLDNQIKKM

[27] = tested on: NCI-H1650; test: cells; conditions: Homo sapiens, NCI-H1650, 72 h
Description: Antiproliferative activity against human NCI-H1650 cells assessed as cell growth inhibition measured after 72 hrs by MTT assay

[28] = tested on: MGC-803; test: Inhibition of clonogenicity in human MGC-803 cells assessed as reduction in colony formation measured after 10 days by crystal violet staining based analysis; type: functional, cell-based; conditions: dose 1-20 µM, time 10.0 day

Q: With COCCOc1cc2ncnc(Sc3nc[nH]n3)c2cc1OCCOC as the molecule, how does the Activity [1] read?
A: 20.9%

Q: What about the Activity [2] of the same molecule?
A: 20.6%

Q: And the Activity [3]?
A: 31.2%

Q: And the inhibition at 10 µM [4]?
A: > 90%

Q: And the Activity [5]?
A: 29.3%

Q: What about the IC50 [6] of the same molecule?
A: 9.21 µM

Q: And the inhibition [7]?
A: Active

Q: And the inhibition at 1.25 h, 5 µM [8]?
A: 15%

Q: What about the Activity [9] of the same molecule?
A: 2.2%

Q: And the Ratio IC50 [10]?
A: 7.5

Q: What about the IC50 [11] of the same molecule?
A: > 50 µM

Q: And the viability at 5 µM [12]?
A: 68.4%

Q: And the inhibition [13]?
A: 97%

Q: And the Activity [14]?
A: Active

Q: What about the IC50 [15] of the same molecule?
A: 28.2 µM

Q: And the Activity [16]?
A: Active

Q: And the Activity [17]?
A: Non-Toxic

Q: And the IC50 [18]?
A: 38.5 µM

Q: And the IC50 [19]?
A: 26.6 µM

Q: What about the Activity [20] of the same molecule?
A: 10.3%

Q: What about the Activity [21] of the same molecule?
A: 55.1%

Q: And the inhibition in vivo at 80 mg/kg/day [22]?
A: 96.1%

Q: What about the Activity [23] of the same molecule?
A: 45.8%

Q: What about the Activity [24] of the same molecule?
A: 13.3%

Q: And the IC50 [25]?
A: 0.69 µM

Q: And the inhibition [26]?
A: < 2%

Q: And the IC50 [27]?
A: 17.2 µM

Q: And the inhibition [28]?
A: Dose-Dependent Effect
